“Also recorded” adds a separate entry of the source.
Legend:
parent pGLori sequence = test: Firefly luciferase reporter gene assay in HepG2 cells stably transfected with parent construct (control); type: cell-based
Experimental: Oligonucleotides targeted to the polymerase translation initiation region were also tested in mammalian cells using a firefly luciferase reporter gene assay. The 35 nucleotide region spanning the translation start site of the HBV ayw polymerase gene from nt 2294–2328 was cloned 5′ to, and in frame with, the entire open reading frame of the firefly luciferase gene in the plasmid pGLori, to produce the plasmid pGLpol (FIG. 10). Transcription of this pol-luciferase gene fusion was placed under the control of the cytomegalovirus early gene promoter. Expression of the pol-luciferase fusion in mammalian cells was quantified in a luminometer by addition of luciferin substrate and ATP cofactor to cell lysates. In all cellular antisense assays, a random sequence 20mer phosphorothioate oligonucleotide (random 20mer PS) was used as a negative control. […]
Stably transfected HepG2 cells were seeded into 96 well plates. […] Cells were washed twice with Dulbecco's phosphate-buffered saline (PBS) and lysed in 50 μl cell lysis buffer (Analytical Luminescence Laboratory, San Diego, Calif.). Luciferase activity was measured in 20 μl lysate using Analytical Luminescence Laboratory substrates in a MicroLumat LB 96 P luminometer (EG&G Berthold, Nashua, N.H.).

[1] = tested on: replicative intermediate (RI) HBV DNA in HepG2.2.15 cells; test: Southern hybridization viral assay in HepG2.2.15 cells; type: cell-based, hepatitis B virus; settings: titrated concentrations, FIGS. 11, 12
Excerpt: The activity of antisense oligonucleotides was also studied in a viral assay in HepG2.2.15 cells, which have been stably transfected with plasmids carrying whole HBV genomes (Sells et al. (1987) Proc. Nat. Acad. Sci. 84:1005–1009; Sureau et al. (1986) Cell 47:37–47). […] A more definitive test is Southern hybridization, which provides data concerning the character of the detected DNA in addition to quantitation. This assay has been described previously for the screening of anti-HBV compounds on HepG2.2.15 cells (Doong et al. (1991) Proc. Nat. Acad. Sci. (USA) 88:8495–8499). In view of the many potential sources of HBV DNA from transfected cells, this assay allows for a more meaningful interpretation of results than the other methods mentioned.
The cell line HepG2.2.15 (Sells et al. (1988) J. Virol. 62:2836–2844) was routinely cultured in RPMI.1640 medium (Life Technologies Ltd., Paisley, Scotland) supplemented with 10% fetal bovine serum (FBS), 100 U/ml penicillin, and 150 μg/ml streptomycin. Cultures were replaced after 10 passages with cells freshly cultured from a mycoplasma-free frozen stock. Cultures were maintained at 37° C. in a humidified atmosphere of 5% CO2 in air.
Cells were cultured in 6-well plates at 10^6 cells/well in 4 ml medium (RPMI.1640 as above but supplemented with 5% FBS) and maintained as above. […]

[2] = tested on: internally 32P-labelled HBV precore-core RNA (epsilon region); test: RNase H cleavage of HBV precore-core RNA with noncontiguous oligonucleotides targeted to the epsilon region; type: biochemical, hepatitis B virus
Experimental: To determine whether an oligonucleotide of the invention is capable of successfully hybridizing to its target, an RNase H assay was performed (Frank et al. (1993) Proc. Int. Conf. Nucleic Acid Med. Applns. 1:4.14(abstract)). This assay is useful when a region of at least four contiguous nucleotides of the oligonucleotide is DNA and the target is RNA. Hybridization of the DNA portion of the oligonucleotide to the RNA target is identified by cleavage at that site by RNase H.
Noncontiguous oligonucleotides targeted to the HBV epsilon region have also been prepared and tested. The epsilon region is characterized by an RNA stem-loop structure consisting primarily of double-stranded RNA with a single-stranded bulge and loop of 6 bases each (FIG. 3). […] The ability of RNase H to cleave an RNA in this manner inflicts greater damage on the RNA than normal antisense oligodeoxynucleotides, while allowing the targeting of a biologically important region that is otherwise difficult to target due to its double-stranded nature.
Based on this information, several oligodeoxynucleotide phosphorothioates were prepared to test the hypothesis that hybridization by mode B is preferred when spanning the base of an RNA stem. 20mer and 24mer noncontiguous oligonucleotides (Table 2) were prepared as well as the 10mers and 12mers corresponding to the “arms” of the noncontiguous sequences.
If a single oligodeoxynucleotide were able to bind across the base of epsilon to sequences on either side of the stem, RNase H might cleave both sites and effectively cut out the epsilon stem-loop from the RNA. […] The 12+12 noncontiguous phosphorothioates show the same ability to bind across the base of the RNA stem. […] Double cleavage of the transcript in the presence of the mixture of 12mer arms (HBV71+HBV72) was much slower (FIG. 6B).
When oligonucleotides hybridizing via mode B were lengthened to allow strand invasion of the RNA stem, disruption of the stem-loop structure occurred. Oligonucleotides HBV89 (SEQ ID NO:39), HBV90 (SEQ ID NO:40), and HBV91 (SEQ ID NO:41) bind across the base of epsilon via mode B and strand invade on either the 5 side (HBV89) or the 3′ side (HBV90 and HBV91) of the RNA stem. HBV89M is an extension of HBV64M with ten 2′-O-methyl RNA residues invading the RNA stem on the 5′-side. Addition of these strand invading nucleotides increased the cleavage efficiency from 23% to 32% at 100 nM oligonucleotide.
Uniformally ^32P-labelled RNA was prepared from 1 μg linearized plasmid using the Ambion MEGAscript In Vitro Transcription Kit (Ambion, Inc., Austin, Tex.) according to the manufacturers' instructions, using [α-^32p] CTP as the radioactive label. The RNA was treated with RNase-free DNase I (Ambion, Inc., Austin, Tex.), extracted with phenol:chloroform: isoamyl alcohol (25:24:1) and purified from nucleotides and nucleosides on a G-50 Sephadex spin column (Boehringer-Mannheim, Indianapolis, Ind., or Pharmacia, Uppsala, Sweden).
In 9 μl 1× RNase H buffer (40 mM Tris-HCl pH 7.4, 4 mM MgCl2, 1 mM DTT), 20–100 nM labelled RNA and 100 nM oligonucleotides were preincubated for 15 min at 37° C. 1 μl RNase H (1 U/μl) was added, and the reaction was incubated at 37° C. for 10 min. The reactions were quenched and analyzed as described above.
Quantitation of the cleavage products was performed using software supplied with the Phosphorimager (Molecular Dynamics, Sunnyvale, Calif., or Bio-Rad Laboratories, Hercules, Calif.). “Counts” were determined by drawing a box around the band of interest and subtracting the background determined with a box drawn nearby. Counts in a product band were compared to total counts in the lane above that band to determine % cleavage.

Substance | antisense activity on luciferase expression, parent pGLori (parent pGLori sequence) | inhibition of the formation of replicative intermediate (RI) HBV DNA [1] | total RNA cleavage by RNase H ([2]; 10+10 and 12+12 noncontiguous oligonucleotides versus mixtures of arms, FIGS. 5A, 6A) | double cleavage (twice cleaved product) by RNase H on both sides of the epsilon stem ([2]; FIGS. 5B, 6B)
Luc +1–+20: 20mer phosphorothioate antisense oligonucleotide targeting the first 20 nucleotides of the firefly luciferase coding region, positive control, SEQ ID NO:50 (antisense ATGTTTTTGGCGTCTTCCAT; all phosphorothioate, sugars by position and methylation of C not given here) | exhibited antisense activity |  |  | 
AGGCAGAGGTGATATAAGGGTCGA (chemistry not given here) [HBV67] |  | Inhibition was also found | equal | efficiently activate RNase H cleavage on both sides of the stem after only 1.5 minutes; also recorded: slightly more cleavage than mode A (HBV79)
ACCCAAGGCACAGCTTGGAG (phosphorothioate, further chemistry not given here) [HBV6] |  | significant inhibition |  | 
